# What was measured:
# COLO-679 (Melanoma) = test: Bliss excess, mean over the matrix (fraction); higher = more synergy
# Method in brief: (§1)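 After 24 hours at 37°C and 5% CO2 in 1536-well plates, cells in DMEM/F12 or RPMI plus 10% FBS received two-drug dose matrices for 72 hours. Viability came from CellTiter-Glo 2.0 luminescence and was scaled as inhibition, anchored at 0 by vehicle wells and at 1 by blank wells. Combination Emax is taken as the second-highest inhibition in the matrix, and Bliss excess as the observed combination effect less EA + EB − EA·EB, with EA and EB the single-agent effects.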
# [1] = system: Ca-Ski (Cervical Carcinoma); test: as above
# Method in brief: as §1
# [2] = system: ALL-SIL (T-Lymphoblastic Leukemia); test: combination Emax (second highest fraction inhibited in the dose matrix, 72 h); higher = more inhibition; extreme values may be limits of the assay
# Method in brief: as §1
# [3] = system: CADO-ES1 (Ewing's Sarcoma); test: as above
# Method in brief: as §1
# [4] = system: ML-2 (Acute Myeloid Leukemia); test: as above
# Method in brief: as §1
# [5] = system: SW872 (Other Solid Carcinomas); test: as above
# Method in brief: as §1
# SK-N-AS (Neuroblastoma) = test: as above
# Method in brief: as §1
# [6] = system: KOPN-8 (B-Lymphoblastic Leukemia); test: as above
# Method in brief: as §1
# [7] = system: A4-Fuk (B-Lymphoblastic Leukemia); test: as above
# Method in brief: as §1
# [8] = system: MV-4-11 (Acute Myeloid Leukemia); test: as above
# Method in brief: as §1
# [9] = system: NCI-H2122 (Lung Adenocarcinoma); test: as above
# Method in brief: as §1
# [10] = system: NCI-H1092 (Small Cell Lung Carcinoma); test: as above
# Method in brief: as §1
# [11] = system: ME-180 (Cervical Carcinoma); test: as above
# Method in brief: as §1
# [12] = system: HCC2998 (Colorectal Carcinoma); test: as above
# Method in brief: as §1
# [13] = system: OACM5-1 (Esophageal Adenocarcinoma); test: as above
# Method in brief: as §1
# [14] = system: EJM (Plasma Cell Myeloma); test: as above
# Method in brief: as §1
# [15] = system: NCI-H650 (Lung Adenocarcinoma); test: as above
# Method in brief: as §1
# [16] = system: Ca-Ski (Cervical Carcinoma); test: as above
# Method in brief: as §1
# [17] = system: DU-145 (Prostate Carcinoma); test: as above
# Method in brief: as §1
# [18] = system: NCI-H522 (Lung Adenocarcinoma); test: as above
# Method in brief: as §1
# 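For Bliss excess, mean over the matrix in this document: after 72 h of two-drug dosing.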
Compound,Bliss excess (COLO-679 (Melanoma)),Bliss excess [1],combination Emax [2],combination Emax [3],combination Emax [4],combination Emax [5],combination Emax (SK-N-AS (Neuroblastoma)),combination Emax [6],combination Emax [7],combination Emax [8],combination Emax [9],combination Emax [10],combination Emax [11],combination Emax [12],combination Emax [13],combination Emax [14],combination Emax [15],combination Emax [16],combination Emax [17],combination Emax [18]
"CN(C)CCCOc1ccc(-c2ccc3ncc4c(c3c2)n(C2CCOCC2)c(=O)n4C)cn1 [AZD0156] + C=CCn1c(=O)c2cnc(Nc3ccc(N4CCN(C)CC4)cc3)nc2n1-c1cccc(C(C)(C)O)n1 [AZD1775] (first compound max 1 µM, partner max 1 µM)",-0.0433,-0.0291,0.742,0.39,1,0.267,0.77,0.85,0.816,0.924,0.793,0.301,0.423,0.633,0.414,0.858,0.263,0.7,0.239,0.225
"CN(C)CCCOc1ccc(-c2ccc3ncc4c(c3c2)n(C2CCOCC2)c(=O)n4C)cn1 [AZD0156] + CCN(CCO)CCCOc1ccc2c(Nc3cc(CC(=O)Nc4cccc(F)c4)[nH]n3)ncnc2c1 [AZD2811] (first compound max 1 µM, 7x7, partner max 1 µM)",-0.0093,0.008,0.976,0.323,0.878,0.0742,0.183,0.554,0.551,0.93,0.358,0.181,0.192,0.183,0.232,0.0982,0.124,0.274,0.134,0.0622
"CN(C)CCCOc1ccc(-c2ccc3ncc4c(c3c2)n(C2CCOCC2)c(=O)n4C)cn1 [AZD0156] + C[C@@H]1COCCN1C2=NC(=NC(=C2)C3(CC3)[S@](=N)(=O)C)C4=C5C=CNC5=NC=C4 [AZD6738] (first compound max 1 µM, 7x7, partner max 10 µM)",0.0164,-0.0036,0.887,0.903,0.967,0.552,0.805,0.927,0.734,0.992,0.945,0.174,0.343,0.831,0.57,0.894,0.226,0.668,0.544,0.0837
"CN(C)CCCOc1ccc(-c2ccc3ncc4c(c3c2)n(C2CCOCC2)c(=O)n4C)cn1 [AZD0156] + O=C(c1cc(Cc2n[nH]c(=O)c3ccccc23)ccc1F)N1CCN(C(=O)C2CC2)CC1 [Olaparib] (first compound max 3 µM, partner max 3 µM)",-0.0013,0.063,0.175,0.739,0.478,0.272,0.169,0.78,0.553,–,0.355,0.304,0.348,0.257,0.327,0.341,0.149,0.304,0.0116,0.258
"C=CCn1c(=O)c2cnc(Nc3ccc(N4CCN(C)CC4)cc3)nc2n1-c1cccc(C(C)(C)O)n1 [AZD1775] + C1CN(CCC1(C(=O)N[C@@H](CCO)C2=CC=C(C=C2)Cl)N)C3=NC=NC4=C3C=CN4 [Capivasertib] (first compound max 3 µM, partner max 3 µM)",-0.0625,0.0161,0.936,0.621,0.994,–,0.766,0.968,0.859,–,0.931,0.533,0.898,0.831,0.74,0.923,0.786,0.825,0.449,0.612
"C=CCn1c(=O)c2cnc(Nc3ccc(N4CCN(C)CC4)cc3)nc2n1-c1cccc(C(C)(C)O)n1 [AZD1775] + C[C@@H]1COCCN1C2=NC(=NC(=C2)C3(CC3)[S@](=N)(=O)C)C4=C5C=CNC5=NC=C4 [AZD6738] (first compound max 1 µM, partner max 10 µM)",-0.0995,0.0052,0.992,0.901,1,0.83,–,0.965,0.875,0.991,0.961,0.397,0.802,0.938,0.778,0.904,0.329,0.869,0.604,0.487
